One data set concerns Chlamydia. Description: effect of chemical inhibitors of GMPS on Chlamydia infection. Format: cell-based. The following applies: for Chlamydia replication: chemical inhibitor of GMPS added to infected cells. The method, then: The effect of chemical inhibitors of GMPS on Chlamydia infection was tested.
The subject of data set [1] is Chlamydia trachomatis (Ctr). The following applies: 10 μM or 100 μM U0126 added 2 h after infection; lysed 48 h p.i.; FIG. 3D. The method, then:
(§1) Western blotting analysis (30 hours post-infection) of (A) uninfected and Ctr-infected cells with and without U0126, (B) uninfected and Ctr-infected cells transfected with siRNAs targeting luciferase or MEK1 and 2, and (C) uninfected and Ctr-infected cells transfected with siRNAs targeting luciferase, K-Ras, or Raf-1. β-actin was used as a loading control. (D) Uninfected and Ctr-infected cells treated with or without UO126 were lysed at 48 hours post-infection and these samples were used to infect freshly seeded cells. These cells were fixed 24 hours post-infection and the infectivity was quantified. Data shown are the mean±SD of three experiments normalized to mock-treated, infected cells. (E) Uninfected and Ctr-infected cells, untransfected of transfected with siRNAs specific for luciferase, K-Ras, or Raf-1 were lysed 48 hours post-infection and these samples were then used to infect freshly seeded cells. These cells were fixed 24 hours post-infection and the infectivity of the bacteria was quantified. […] Western blots depicted in (A) to (C) are representative of three experiments.

The test system of the next data set is ERK. The following applies: 30 hours post-infection; FIG. 3A. The method, then: as §1
Data set [2] relates to cPLA2. Conditions: 30 hours post-infection; FIG. 3A. The procedure: as §1
The next data set relates to Ctr. The following applies: Su et al., 2004; cited from earlier work.
In data set [3] the test system is cPLA2. The following applies: Su et al., 2004; cited from earlier work.
In a further data set the target is GMPS (Escherichia coli, UniProt P04079). Conditions: Chittur et al., 2001, cited from earlier work.
Sequence of GMPS (P04079 whole entry): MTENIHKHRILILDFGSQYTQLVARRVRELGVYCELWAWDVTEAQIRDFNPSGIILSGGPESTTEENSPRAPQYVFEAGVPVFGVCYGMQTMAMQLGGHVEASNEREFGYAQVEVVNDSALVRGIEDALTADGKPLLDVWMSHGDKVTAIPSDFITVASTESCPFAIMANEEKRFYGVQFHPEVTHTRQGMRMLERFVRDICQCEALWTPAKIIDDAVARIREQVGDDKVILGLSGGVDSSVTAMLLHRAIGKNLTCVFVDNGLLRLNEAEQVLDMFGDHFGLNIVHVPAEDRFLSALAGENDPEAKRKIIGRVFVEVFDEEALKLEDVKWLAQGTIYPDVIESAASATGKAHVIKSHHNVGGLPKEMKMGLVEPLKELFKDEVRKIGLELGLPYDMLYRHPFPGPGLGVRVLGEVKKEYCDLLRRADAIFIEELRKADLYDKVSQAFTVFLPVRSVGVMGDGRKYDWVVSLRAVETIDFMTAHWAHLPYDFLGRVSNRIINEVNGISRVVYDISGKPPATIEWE
In a further data set the test system is PPAT, GMPS, CAD, CTPS. The following applies: de novo pathway of purine and pyrimidine synthesis; cited from earlier work.
Data set [4] has as its system cellular UTP, CTP, GMP, ATP, ITP. The following applies: Neil et al., 1979; cited from earlier work.
A further data set deals with Leishmania donovani. The following applies: vector and host form; cited from earlier work.
In the next data set the test system is P. falciparum. Conditions: in vitro; cited from earlier work.
Data set [5] deals with bloodstream T. brucei. Conditions: bloodstream T. brucei in culture; cited from earlier work.
Data set [6] concerns bloodstream T. brucei. Conditions: mouse model; cited from earlier work.
For the next data set, the system named is C. trachomatis L2. Kind of data set: genome-wide siRNA-based screen in human epithelial cells, formation of Chlamydia infectious progeny. The class given is cell-based. The following applies: Table 1b, primary screen, genes of nucleotide metabolism. From the text:
We performed a genome-wide siRNA-based screen in human epithelial cells to identify host cell factors that are essential for Chlamydia infection using the Qiagen Hu_Genome Set V1.0 and the Human Druggable Genome siRNA Set V2.0. C. trachomatis L2 was used.

Like-named read-outs stand apart in the source and are kept apart here.

The values below come from patent US20130116302A1, “PHARMACEUTICAL COMPOSITION FOR THE TREATMENT OF CHLAMYDIAL INFECTION” (Max-Planck-Gesellschaft zur Foerderung der Wissenschaften …, priority 2010, published 2013).

Consider `C=C1O[C@@](CO)(n2cnc3c(N)ncnc32)[C@H](O)[C@@H]1O` [Decoyinine], for which, in the data set on Chlamydia, the Chlamydia replication result is “no inhibitory effect”.
As for `N#CC(=C(/N)Sc1ccccc1N)/C(C#N)=C(\N)Sc1ccccc1N` [U0126], the “infectivity of Ctr” value in [1] is reported as “decreased”; with Ctr it was “decreases”. In addition, the “phosphorylation of ERK in response to infection” value in the data set on ERK is “repressed”. The “phosphorylation of cPLA2 in response to infection” value with cPLA2 [2] was “repressed”. Also, the “extent of phosphorylation of cPLA2” value in the data set on cPLA2 [3] is “reduces”.
Consider `N[C@H](C(=O)O)[C@@H]1CC(Cl)=NO1` [acivicin, L-[αS,5S]-α-amino-3-chloro-4,5-dihydro-5-isoxazoleacetic acid], for which the “Chlamydia replication after addition of the nucleotides GTP and GMP” value in the data set with Chlamydia (cells to which acivicin was added) is “recover Chlamydia replication”. The Chlamydia replication result in the data set on Chlamydia was “complete block”. In addition, the “inhibition of GMPS (γ-glutamine amidotransferase activity)” value is recorded as “inhibit” at GMPS and “irreversibly inhibits” on GMPS (listed as Acivicin). Besides, the “inhibition of PPAT, GMPS, CAD and CTPS” value in the data set on PPAT, GMPS, CAD, CTPS was “inhibits”. Moreover, the cellular nucleotide concentrations entry in [4] is “decrease of cellular UTP, CTP, and GMP concentrations, with no alteration in ATP or ITP pools”. Besides, the “killing of Leishmania donovani” value with Leishmania donovani was “kills both the vector and the host form”. The “growth of P. falciparum” value in the data set with P. falciparum was “inhibit the growth”. For the same molecule, the antitrypanosomal activity result in the data set with bloodstream T. brucei [5] and in the data set with bloodstream T. brucei [6] was “antitrypanosomal activity” in each case.
Take “Hs_PDE4A_4: siRNA, target gene PDE4A (sense ATGGGAAGTCGTGTCATCCTA; chemistry not given here; the letters are possibly those of the target site)”: the “Infectivity phenotype upon Knockdown” value in the data set with C. trachomatis L2 is “down”.
Same read-out and setting: in the case of “Hs_PDE4D 3: siRNA, target gene PDE4D (sense TACCCACTAATGGACAATCAA; chemistry not given here)” it was “down”; in that of “Hs_PDE4D_4: siRNA, target gene PDE4D (sense CAGGTAGTTAAGTTAGGGTTA; chemistry not given here; the letters are possibly those of the target site)”, “down”.
With “Hs_PDE6B_2: siRNA, target gene PDE6B (sense CACGCTGCTCATGACCGGCAA; chemistry not given here; the letters are possibly those of the target site)”, the “Infectivity phenotype upon Knockdown” value in the data set with C. trachomatis L2 is “down”.
Same read-out and setting: in the case of “Hs_PDE6B_4: siRNA, target gene PDE6B (sense GCCCACCACATTTGACATCTA; chemistry not given here; the letters are possibly those of the target site)” it was “down”.
